Data taken from ChEMBL document CHEMBL1132141, “Emerging therapies for the prevention or treatment of postmenopausal osteoporosis” (1999).

Species: Rattus norvegicus
Assay: Effective concentration against cholesterol-lowering agent in OVX rats
Format: functional

Question: With `C[C@H]1CCC[C@H](O)CCCCCc2cc(O)cc(O)c2C(=O)O1` [ZERANOL] as the compound, how does the ED50 read?
Answer: 0.2 mg/kg
